Where two headings read alike, the source gives them in different places.
How the values were obtained:
[1] = test system: TNBS induced colitis model rat; assay: Therapeutic effect in TNBS induced colitis model rat (intestinal permeability of FITC); type: in vivo; details: po, 72 h, 3 mg/kg orally once a day for 3 days, SD rats, mean, test compounds-free group 0, TNBS-untreated group 100, read-out: Inhibition (%): suppressive rate on the intestinal permeability
Procedure: Test Example 2 Therapeutic Effect in Colitis Model
(1) TNBS Induced Colitis Model Rat
SD rats: 8-weeks-old male SLC (Japan SLC) were used. Under pentobarbital anesthesia, 300 μL of TNBS (28 mg/mL) prepared by 50% ethanol was administered at a point 8 cm from anus in large intestine to cause inflammation. To the solvent-treated group was administrated 300 μL of 50% ethanol. Animals were fasted for 48 hours prior to administration of TNBS. Test compounds (3 mg/kg) prepared by 0.05% methylcellulose solution were orally administered once a day from next day, and it was administered for a total of 3 days. After administering for 3 days, 50 mg/kg FITC was orally administered at 4 hours after administration. Blood samples were collected from jugular vein under isoflurane anesthesia after 4 hours. The serum was centrifuged and fluorescence intensity was detected by PHERAstar FSX (BMG Labtech) to measure the concentration of FITC permeating into circulating blood through the mesentery. The suppressive rate on the intestinal permeability of test compounds was calculated based on the value of test compounds-free group as 0 and the value of TNBS-untreated group as 100.

[2] = Rat PK study: concentration of compounds in large intestine tissue and plasma; type: in vivo; details: male, SD, 3 mg/kg oral; for Kp at 8 h: large intestine tissue / plasma, read-out: C/P: ratio of the above Colon and Plasma; for AUC / Cmax: non-fasted; for AUC: read-out: AUC: area under the plasma test compound concentration-time curve (converted); for Cmax: read-out: Cmax: maximum plasma concentration of test compounds in the case of oral administration
Procedure: Test Example 3 Concentration of Compounds in Large Intestine Tissue
Test compounds (3 mg/kg/5 mL) prepared by 0.05% methylcellulose were orally administered to non-fasted rats (SD, 8-weeks-old, male, Japan SLC). Blood samples were collected from jugular vein at 0.25, 0.5, 1, 2, 4, 6 and 8 hours after the administration. Laparotomy was performed under isoflurane anesthesia and large intestine was isolated. Collected distal large intestine (about 5 cm) was cut open, and then the large intestine was washed with saline on a dish. After washing, the large intestine was minced by a small scissors. About 150 mg thereof was moved to tube. To the tube was added 100 μL of saline, the mixture was homogenized using shake master (1000 rpm×30 minutes). Samples were prepared by the addition with quadruple volume of saline as final volume. The concentrations of the test compound in large intestine tissue and plasma were measured through a quantitative analysis using liquid chromatography-mass spectrometry (LC/MS).

[3] = biological target: human PHD2184-418 (Homo sapiens (Human), UniProt Q9GZT9); assay: PHD2 inhibitory test (fluorescence polarization, binding between PHD2 and HIF-1α); details: human PHD2184-418, FITC-labeled HIF-1α556-574, 2 μM 2-oxoglutarate, 37° C. 60 minutes
Procedure, shortened: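 N-His-tagged human PHD2 (residues 184–418, E. coli-expressed) was preincubated with compound, then FITC-Ahx-HIF-1α556-574 peptide was added in pH 7.4 HEPES buffer with 10 μM MnCl2 and 2 μM 2-oxoglutarate. After 60 min at 37 °C, fluorescence polarization (ex 470/em 530 nm) was read. Inhibition was calculated against compound-free wells.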

[4] = large intestine tissue (distal large intestine), read-out: Colon: concentrations of the test compound in large intestine tissue after 8 hours
[5] = plasma, read-out: Plasma: plasma test compound concentration after 8 hours

Sequence of human PHD2184-418 (Q9GZT9 184-418): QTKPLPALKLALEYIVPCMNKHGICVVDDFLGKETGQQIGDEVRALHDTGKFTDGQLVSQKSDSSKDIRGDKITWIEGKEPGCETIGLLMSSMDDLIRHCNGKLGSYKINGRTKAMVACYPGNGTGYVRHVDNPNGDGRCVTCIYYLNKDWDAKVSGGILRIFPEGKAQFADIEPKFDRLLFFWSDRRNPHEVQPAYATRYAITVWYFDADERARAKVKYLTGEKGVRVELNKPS

Row | concentration at 8 h [2, 4] [ng/g] | Kp at 8 h [2] | concentration at 8 h [2, 5] [ng/mL] | AUC ([2]; plasma) [ng·h/mL] | Cmax ([2]; plasma) [ng/mL] | IC50 [3] [nM] | Structure (SMILES) | inhibition in vivo at 3 mg/kg [1] [%]
1 | 54 | > 54 | < 1 | 21.5 | 5 | 140 | Cn1c(C(=O)O)cnc1CN1CC[C@H](n2c(=O)n(-c3ccc(-c4ccc(C(=O)O)cc4)cc3)c3cccnc32)C1 [Example 83, (S)-2-((3-(1-(4′-Carboxy-[1,1′-biphenyl]-4-yl)-2-oxo-1,2-dihydro-3H-imidazo[4,5-b]pyridin-3-yl)pyrrolidin-1-yl)methyl)-1-methyl-1H-imidazole-5-carboxylic acid] | 85
2 | 99 | > 99 | < 1 | 1.27 | 1 | 150 | Cn1c(C(=O)O)cnc1CN1CC[C@H](n2c(=O)n(-c3ccc(-c4ccc(C(=O)O)cc4)c(O)c3)c3cccnc32)C1 [Example 84, (S)-2-((3-(1-(4′-Carboxy-2-hydroxy-[1,1′-biphenyl]-4-yl)-2-oxo-1,2-dihydro-3H-imidazo[4,5-b]pyridin-3-yl)pyrrolidin-1-yl)methyl)-1-methyl-1H-imidazole-5-carboxylic acid] | 117

Reference: patent US12077531B2, “Imidazopyridinone compound” (KISSEI PHARMACEUTICAL CO., LTD., priority 2018, dated 2024)
